# Source: US5840684A, “Glycopeptide antibiotic derivatives” (Eli Lilly and Company, priority 1995, dated 1998)
# Legend:
# [1] = system: vancomycin-resistant enterococci; assay: broth micro-dilution, mean geometric MIC; assay type: cell-based, Enterococcus faecium and Enterococcus faecalis; conditions: enterococci, 24-hour incubation
# [2] = system: Entercoccus faecium 2041; assay: broth micro-dilution MIC; assay type: cell-based; conditions: Entercoccus faecium 2041
# Procedure: (§1) The formula I compounds have in vitro and in vivo activity against Gram-positive pathogenic bacteria. The MIC's were determined using a standard broth micro-dilution assay.
# [3] = system: Enterococcus gallinarum 245; assay: broth micro-dilution MIC; assay type: cell-based; conditions: Enterococcus gallinarum 245
# Procedure: as §1
# [4] = system: Streptococcus pneumoniae P1; assay: broth micro-dilution MIC; assay type: cell-based
# Procedure: as §1
# [5] = system: vancomycin-susceptible enterococci; assay: broth micro-dilution, mean geometric MIC; assay type: cell-based, Enterococcus faecium and Enterococcus faecalis; conditions: enterococci, 24-hour incubation
# [6] = system: Staphylococcus aureus S13E; assay type: cell-based
# Procedure: (§2) The MIC's were determined using a standard broth micro-dilution assay.
# [7] = system: Staphylococcus aureus SA1199A; assay: broth micro-dilution MIC; assay type: cell-based
# Procedure: as §2
# [8] = system: Staphylococcus aureus 489; assay: broth micro-dilution MIC; assay type: cell-based
# Procedure: as §2
# [9] = system: Staphylococcus aureus SA1199; assay: broth micro-dilution MIC; assay type: cell-based
# Procedure: as §2
# [10] = system: Staphylococcus aureus X778; assay: broth micro-dilution MIC; assay type: cell-based
# Procedure: as §2
# [11] = system: Streptococcus pyogenes C203; assay: broth micro-dilution MIC; assay type: cell-based
# Procedure: as §2
# [12] = system: Entercoccus faecium 180-1; assay: broth micro-dilution MIC; assay type: cell-based
# Procedure: as §2
# [13] = system: Entercoccus faecium 276; assay: broth micro-dilution MIC; assay type: cell-based
# Procedure: as §2
# [14] = system: Staphylococcus aureus X400; assay: broth micro-dilution MIC; assay type: cell-based
# Procedure: as §2
# [15] = system: Staphylococcus haemolyticus 415; assay: broth micro-dilution MIC; assay type: cell-based
# Procedure: as §1
# [16] = system: Staphylococcus haemolyticus 105; assay: broth micro-dilution MIC; assay type: cell-based
# Procedure: as §1
# [17] = system: Staphylococcus epidermidis 270; assay: broth micro-dilution MIC; assay type: cell-based
# Procedure: as §1
# [18] = system: Entercoccus faecium 180; assay: broth micro-dilution MIC; assay type: cell-based; conditions: Entercoccus faecium 180
# Procedure: as §1
# [19] = system: Staphylococcus aureus 446; assay: broth micro-dilution MIC; assay type: cell-based
# Procedure: as §2
# [20] = system: Staphylococcus aureus SA1199B; assay type: cell-based
# Procedure: as §2
# [21] = system: Staphylococcus aureus 447; assay: broth micro-dilution MIC; assay type: cell-based
# Procedure: as §2
Structure (SMILES),"mean geometric MIC, Vancomycin Resistant Strains [1]",MIC [2],MIC [3],MIC [4],"mean geometric MIC, Vancomycin Sensitive Strains [5]",MIC [6],MIC [7],MIC [8],MIC [9],MIC [10],MIC [11],MIC [12],MIC [13],MIC [14],MIC [15],MIC [16],MIC [18],MIC [19],MIC [20],MIC [21],other results
CNC(CC(C)C)C(=O)NC1C(=O)NC(CC(N)=O)C(=O)NC2C(=O)NC3C(=O)NC(C(=O)NC(C(=O)O)c4cc(O)cc(O)c4-c4cc3ccc4O)C(OC3CC(C)(N)C(O)C(C)O3)c3ccc(c(Cl)c3)Oc3cc2cc(c3OC2OC(CO)C(O)C(O)C2OC2CC(C)(NCc3cccc4c([N+](=O)[O-])cccc34)C(O)C(C)O2)Oc2ccc(cc2Cl)C1O (stereo not drawn) [Compound 25],4.0 µg/mL,0.25 µg/mL,≤ 0.06 µg/mL,≤ 0.06 µg/mL,0.22 µg/mL,≤ 0.06 µg/mL,≤ 0.06 µg/mL,≤ 0.06 µg/mL,≤ 0.06 µg/mL,≤ 0.06 µg/mL,≤ 0.06 µg/mL,≤ 0.06 µg/mL,0.25 µg/mL,≤ 0.06 µg/mL,–,–,–,–,–,–,–
CNC(CC(C)C)C(=O)NC1C(=O)NC(CC(N)=O)C(=O)NC2C(=O)NC3C(=O)NC(C(=O)NC(C(=O)O)c4cc(O)cc(O)c4-c4cc3ccc4O)C(OC3CC(C)(N)C(O)C(C)O3)c3ccc(c(Cl)c3)Oc3cc2cc(c3OC2OC(CO)C(O)C(O)C2OC2CC(C)(NCCc3ccc(Oc4ccccc4)cc3)C(O)C(C)O2)Oc2ccc(cc2Cl)C1O (stereo not drawn) [Compound 33],2.8 µg/mL,≤ 0.06 µg/mL,–,–,0.18 µg/mL,≤ 0.06 µg/mL,≤ 0.06 µg/mL,≤ 0.06 µg/mL,1 µg/mL,0.5 µg/mL,–,≤ 0.06 µg/mL,≤ 0.06 µg/mL,–,8 µg/mL,2 µg/mL,2 µg/mL,4 µg/mL,–,–,MIC [17]: 2 µg/mL
CNC(CC(C)C)C(=O)NC1C(=O)NC(CC(N)=O)C(=O)NC2C(=O)NC3C(=O)NC(C(=O)NC(C(=O)O)c4cc(O)cc(O)c4-c4cc3ccc4O)C(OC3CC(C)(N)C(O)C(C)O3)c3ccc(c(Cl)c3)Oc3cc2cc(c3OC2OC(CO)C(O)C(O)C2OC2CC(C)(NCc3ccc(-c4ccc(OC)cc4)cc3)C(O)C(C)O2)Oc2ccc(cc2Cl)C1O (stereo not drawn) [Compound 54],1.7 µg/mL,≤ 0.06 µg/mL,0.5 µg/mL,≤ 0.06 µg/mL,0.56 µg/mL,0.5 µg/mL,≤ 0.06 µg/mL,≤ 0.06 µg/mL,0.5 µg/mL,≤ 0.06 µg/mL,≤ 0.06 µg/mL,≤ 0.06 µg/mL,1 µg/mL,≤ 0.06 µg/mL,1 µg/mL,2 µg/mL,1 µg/mL,1 µg/mL,1 µg/mL,–,–
CNC(CC(C)C)C(=O)NC1C(=O)NC(CC(N)=O)C(=O)NC2C(=O)NC3C(=O)NC(C(=O)NC(C(=O)O)c4cc(O)cc(O)c4-c4cc3ccc4O)C(OC3CC(C)(N)C(O)C(C)O3)c3ccc(c(Cl)c3)Oc3cc2cc(c3OC2OC(CO)C(O)C(O)C2OC2CC(C)(NCCc3ccccc3OCc3ccccc3)C(O)C(C)O2)Oc2ccc(cc2Cl)C1O (stereo not drawn) [Compound 59],51 µg/mL,0.5 µg/mL,1 µg/mL,≤ 0.06 µg/mL,0.42 µg/mL,0.125 µg/mL,≤ 0.06 µg/mL,0.125 µg/mL,0.125 µg/mL,≤ 0.06 µg/mL,≤ 0.06 µg/mL,≤ 0.06 µg/mL,0.125 µg/mL,–,8 µg/mL,8 µg/mL,8 µg/mL,0.5 µg/mL,0.5 µg/mL,1 µg/mL,MIC [17]: 1 µg/mL
CNC(CC(C)C)C(=O)NC1C(=O)NC(CC(N)=O)C(=O)NC2C(=O)NC3C(=O)NC(C(=O)NC(C(=O)O)c4cc(O)cc(O)c4-c4cc3ccc4O)C(OC3CC(C)(N)C(O)C(C)O3)c3ccc(c(Cl)c3)Oc3cc2cc(c3OC2OC(CO)C(O)C(O)C2OC2CC(C)(NCc3ccc(C)c(C)c3)C(O)C(C)O2)Oc2ccc(cc2Cl)C1O (stereo not drawn) [Compound 76],8.0 µg/mL,≤ 0.06 µg/mL,4 µg/mL,≤ 0.06 µg/mL,–,–,–,≤ 0.06 µg/mL,≤ 0.06 µg/mL,–,≤ 0.06 µg/mL,≤ 0.06 µg/mL,≤ 0.06 µg/mL,–,4 µg/mL,2 µg/mL,0.5 µg/mL,–,–,0.5 µg/mL,–
CNC(CC(C)C)C(=O)NC1C(=O)NC(CC(N)=O)C(=O)NC2C(=O)NC3C(=O)NC(C(=O)NC(C(=O)O)c4cc(O)cc(O)c4-c4cc3ccc4O)C(OC3CC(C)(N)C(O)C(C)O3)c3ccc(c(Cl)c3)Oc3cc2cc(c3OC2OC(CO)C(O)C(O)C2OC2CC(C)(NCC3CCC(c4ccccc4)C3)C(O)C(C)O2)Oc2ccc(cc2Cl)C1O (stereo not drawn) [Compound 140],6.7 µg/mL,≤ 0.06 µg/mL,8 µg/mL,≤ 0.06 µg/mL,0.19 µg/mL,≤ 0.06 µg/mL,≤ 0.06 µg/mL,≤ 0.06 µg/mL,≤ 0.06 µg/mL,–,≤ 0.06 µg/mL,≤ 0.06 µg/mL,0.5 µg/mL,≤ 0.06 µg/mL,8 µg/mL,2 µg/mL,1 µg/mL,–,≤ 0.06 µg/mL,–,–
CNC(CC(C)C)C(=O)NC1C(=O)NC(CC(N)=O)C(=O)NC2C(=O)NC3C(=O)NC(C(=O)NC(C(=O)O)c4cc(O)cc(O)c4-c4cc3ccc4O)C(OC3CC(C)(N)C(O)C(C)O3)c3ccc(c(Cl)c3)Oc3cc2cc(c3OC2OC(CO)C(O)C(O)C2OC2CC(C)(NCc3ccccc3O)C(O)C(C)O2)Oc2ccc(cc2Cl)C1O (stereo not drawn) [Compound 169],19 µg/mL,≤ 0.06 µg/mL,4 µg/mL,≤ 0.06 µg/mL,0.50 µg/mL,≤ 0.06 µg/mL,≤ 0.06 µg/mL,≤ 0.06 µg/mL,≤ 0.06 µg/mL,≤ 0.06 µg/mL,≤ 0.06 µg/mL,≤ 0.06 µg/mL,≤ 0.06 µg/mL,≤ 0.06 µg/mL,4 µg/mL,2 µg/mL,1 µg/mL,–,0.125 µg/mL,2 µg/mL,–
CNC(CC(C)C)C(=O)NC1C(=O)NC(CC(N)=O)C(=O)NC2C(=O)NC3C(=O)NC(C(=O)NC(C(=O)O)c4cc(O)cc(O)c4-c4cc3ccc4O)C(OC3CC(C)(N)C(O)C(C)O3)c3ccc(c(Cl)c3)Oc3cc2cc(c3OC2OC(CO)C(O)C(O)C2OC2CC(C)(NCC3CCC(COCc4ccccc4)CC3)C(O)C(C)O2)Oc2ccc(cc2Cl)C1O (stereo not drawn) [Compound 239],2.8 µg/mL,≤ 0.06 µg/mL,1 µg/mL,≤ 0.06 µg/mL,0.095 µg/mL,0.5 µg/mL,≤ 0.06 µg/mL,0.5 µg/mL,0.5 µg/mL,–,–,≤ 0.06 µg/mL,–,–,1 µg/mL,1 µg/mL,≤ 0.06 µg/mL,1 µg/mL,0.5 µg/mL,0.5 µg/mL,–
CNC(CC(C)C)C(=O)NC1C(=O)NC(CC(N)=O)C(=O)NC2C(=O)NC3C(=O)NC(C(=O)NC(C(=O)O)c4cc(O)cc(O)c4-c4cc3ccc4O)C(OC3CC(C)(N)C(O)C(C)O3)c3ccc(c(Cl)c3)Oc3cc2cc(c3OC2OC(CO)C(O)C(O)C2OC2CC(C)(NCc3ccc(Oc4ccc(Cl)cc4)cc3)C(O)C(C)O2)Oc2ccc(cc2Cl)C1O (stereo not drawn) [Compound 240],1.19 µg/mL,≤ 0.06 µg/mL,2 µg/mL,≤ 0.06 µg/mL,0.055 µg/mL,0.5 µg/mL,≤ 0.06 µg/mL,1 µg/mL,0.5 µg/mL,0.5 µg/mL,–,≤ 0.06 µg/mL,0.5 µg/mL,–,2 µg/mL,1 µg/mL,≤ 0.06 µg/mL,1 µg/mL,–,0.5 µg/mL,–
